In experiment [1] the target is T1, human recombinant kinase full-length wildtype AKT1 (Homo sapiens, UniProt P31749).
T1 construct: Purified human recombinant kinase full-length wildtype AKT1 was expressed in insect cells; made in house; host or cells: insect cells
Kind of experiment: AKT1 kinase assay (wildtype, TR-FRET, Lance). The note with it: 0.6 nM wildtype AKT1, 50 nM Ulight-CREBtide, either 50 μM ATP or 2 mM ATP, 60 min at RT. The format is biochemical. The gist of the method:
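Insect-cell-expressed full-length human AKT1, PDPK1-activated (0.6 nM), preincubated with compound 15 min at RT, then reacted 60 min at RT with 50 nM ULight-CREBtide and 50 μM or 2 mM ATP (pH 7.5, 1% DMSO). Phospho-CREBtide read by Eu-anti-phospho-Ser133 TR-FRET (665/620 ratio); IC50 from 10-point 4-parameter fit.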

Experiment [2] has as its target T2, human recombinant kinase full-length AKT1 E17K (Homo sapiens, UniProt P31749, E17K).
T2 construct: Purified human recombinant kinase full-length AKT1 E17K was expressed in insect cells; made in house; host or cells: insect cells
Kind of experiment: AKT1 E17K kinase assay (TR-FRET, Lance). The format is biochemical. The following applies: 0.6 nM AKT1 E17K, 50 nM Ulight-CREBtide, either 50 μM ATP or 2 mM ATP, 60 min at RT. The gist of the method: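 Full-length AKT1 E17K from insect cells, PDPK1-activated, at 0.6 nM with 50 nM Ulight-CREBtide and 50 μM or 2 mM ATP, pH 7.5, 1% DMSO. Enzyme and compound preincubated 15 min, reaction run 60 min at RT; Eu-anti-phospho-CREB (Ser133) TR-FRET 665/620 ratio, 10-point curve, IC50 by 4-parameter fit.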

The values that follow come from patent publication US20260200920A1, “SUBSTITUTED AMINOPYRIDINE COMPOUNDS FOR USE AS AKT1 INHIBITORS” (Atavistik Bio, Inc., priority 2023, published 2026).

pIC50: −log10 of the molar value.

T1 sequence (P31749 whole entry): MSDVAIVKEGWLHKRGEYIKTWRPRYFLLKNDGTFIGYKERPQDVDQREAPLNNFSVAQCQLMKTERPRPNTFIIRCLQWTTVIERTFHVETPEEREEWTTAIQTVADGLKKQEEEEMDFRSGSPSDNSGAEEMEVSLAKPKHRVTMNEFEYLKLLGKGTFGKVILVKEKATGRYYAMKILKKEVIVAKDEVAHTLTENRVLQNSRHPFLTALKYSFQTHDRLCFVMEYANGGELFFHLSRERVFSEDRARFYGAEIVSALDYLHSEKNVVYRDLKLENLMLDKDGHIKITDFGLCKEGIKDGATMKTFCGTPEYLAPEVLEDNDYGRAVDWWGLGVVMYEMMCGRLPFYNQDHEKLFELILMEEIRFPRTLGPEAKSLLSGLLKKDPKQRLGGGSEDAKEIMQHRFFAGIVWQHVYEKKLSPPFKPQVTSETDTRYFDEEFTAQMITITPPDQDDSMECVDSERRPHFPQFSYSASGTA
T2 sequence (P31749 whole entry E17K): as the sequence (P31749 whole entry) above, with E17K counted along it

As to `NC(=O)N1CCC(C(=O)Nc2ccc(-n3c(-c4cccnc4N)nc4ccc(-c5ccccc5)nc43)cn2)CC1` [Compound I-122, N^4-(5-(2-(2-aminopyridin-3-yl)-5-phenyl-31-imidazo[4,5-b]pyridin-3-yl)pyridin-2-yl)piperidine-1,4-dicarboxamide], the pIC50 in experiment [1] was above 4.70; in experiment [2] it was above 6.30.
In the same order, the values of `Nc1ncccc1-c1nc2ccc(C3CCCC3)nc2n1-c1ccc(NC(=O)[C@H]2CC[C@H](C(=O)O)CC2)nc1` [Compound I-120, (1r,4r)-4-((5-(2-(2-aminopyridin-3-yl)-5-cyclopentyl-3H-imidazo[4,5-b]pyridin-3-yl)pyridin-2-yl)carbamoyl) cyclohexane-1-carboxylic acid] are above 4.70 and 5.70 to 6.30.
In the case of `CC(C(=O)O)C1CCN(Cc2ccc(-n3c(-c4cccnc4N)nc4ccc(-c5ccccc5)nc43)cc2)C1` (centres unmarked) [Compound I-104, 2-[1-[[4-[2-(2-amino-3-pyridyl)-5-phenyl-imidazo[4,5-b]pyridin-3-yl]phenyl]methyl]pyrrolidin-3-yl]propanoic acid], the pIC50 in experiment [1] is above 4.70; in experiment [2] it was 5.70 to 6.30.
In the same order, the values of `Nc1ncccc1-c1nc2ccc(-c3ccccc3)nc2n1-c1ccc([C@@H]2CCN(C[C@H]3CC[C@H](C(=O)O)CC3)C2)cc1` (single isomer, unassigned) [Compound I-233] are above 4.70 and above 6.30.
In the same order, the values of `Nc1ncccc1-c1nc2ccc(N3CCOCC3)cc2n1-c1ccc(NC(=O)[C@H]2CC[C@H](C(=O)O)CC2)cc1` [Compound I-33, (1r,4r)-4-((4-(2-(2-aminopyridin-3-yl)-6-morpholino-1H-benzo[d]imidazol-1-yl)phenyl)carbamoyl)cyclohexane-1-carboxylic acid] are above 4.70 and at most 5.70.
Consider `Nc1ncccc1-c1nc2ccc(-c3ccccc3)nc2n1-c1ccc(C(=O)N2CCC(C(=O)O)CC2)nc1` [Compound I-22, 1-(5-(2-(2-aminopyridin-3-yl)-5-phenyl-3H-imidazo[4,5-b]pyridin-3-yl)picolinoyl)piperidine-4-carboxylic acid], for which the pIC50 in experiment [1] is 4.10 to 4.70; in experiment [2], at most 5.70.
In the same order, the values of `Nc1ncccc1-c1nc2ccc(-c3ccccc3)nc2n1-c1ccc(CN(CC(F)(F)F)[C@H]2CC[C@H](C(=O)O)CC2)cc1` (single isomer, unassigned) [Compound I-188, (1r,4r)-4-((4-(2-(2-aminopyridin-3-yl)-5-phenyl-3H-imidazo[4,5-b]pyridin-3-yl)benzyl)(2,2,2-trifluoroethyl)amino)cyclohexane-1-carboxylic acid] are above 4.70 and at most 5.70.
Turning to `Cc1cc(NC(=O)C2CC3(CC(C(=O)O)C3)C2)ccc1-n1c(-c2cccnc2N)nc2ccc(-c3ccccc3)nc21` (centres unmarked) [Compound I-100, 6-((4-(2-(2-aminopyridin-3-yl)-5-phenyl-3H-imidazo[4,5-b]pyridin-3-yl)-3-methylphenyl)carbamoyl)spiro[3.3]heptane-2-carboxylic acid], the pIC50 is above 4.70 in experiment [1] and 5.70 to 6.30 in experiment [2].
In the same order, the values of `Cc1nc(NCC2CC3(C2)CC(C(=O)O)C3)ccc1-n1c(-c2cccnc2N)nc2ccc(-c3ccccc3)nc21` (centres unmarked) [Compound I-225] are above 4.70 and above 6.30.
In the same order, the values of `Cc1cc(CN(C)[C@H]2CC[C@@H](C(=O)O)CC2)ccc1-n1c(-c2cccnc2N)nc2ccc(-c3ccccc3)nc21` [Compound I-179] are above 4.70 and 5.70 to 6.30.
Turning to `CC1(C(=O)O)CCN(Cc2ccc(-n3c(-c4cccnc4N)nc4ccc(-c5ccccc5)nc43)cc2)CC1` [Compound I-86, 1-[[4-[2-(2-amino-3-pyridyl)-5-phenyl-imidazo[4,5-b]pyridin-3-yl]phenyl]methyl]-4-methyl-piperidine-4-carboxylic acid], the pIC50 in experiment [1] was above 4.70; in experiment [2], 5.70 to 6.30.
`Nc1ncccc1-c1nc2ccc(-c3ccccc3)nc2n1-c1ccc(C2CN(C[C@H]3CC[C@@H](C(=O)O)CC3)C2)c(F)c1` [Compound I-63, (1s,4s)-4-((3-(4-(2-(2-aminopyridin-3-yl)-5-phenyl-3H-imidazo[4,5-b]pyridin-3-yl)-2-fluorophenyl)azetidin-1-yl)methyl)cyclohexane-1-carboxylic acid]: the negative-log IC50 (pIC50) in experiment [1] was above 4.70; in experiment [2] it was 5.70 to 6.30.
Consider `CNS(=O)(=O)C1CCC(CN2CC(c3ccc(-n4c(-c5cccnc5N)nc5ccc(-c6ccccc6)nc54)cc3)C2)CC1` (centres unmarked) [Compound I-152], for which the pIC50 was above 4.70 in experiment [1] and 5.70 to 6.30 in experiment [2].
In the same order, the values of `Cc1nc(NC[C@@H]2CC[C@@H](C(=O)O)C2)ccc1-n1c(-c2cccnc2N)nc2ccc(-c3ccccc3)nc21` [Compound I-227] are above 4.70 and 5.70 to 6.30.
Turning to `C[C@]1(C(=O)O)CC[C@@H](CN2CC(c3ccc(-n4c(-c5cccnc5N)nc5ccc(-c6ccccc6)nc54)cc3)C2)CC1` [Compound I-75, (1s,4s)-4-((3-(4-(2-(2-aminopyridin-3-yl)-5-phenyl-311-imidazo[4,5-b]pyridin-3-yl)phenyl)azetidin-1-yl)methyl)-1-methylcyclohexane-1-carboxylic acid], the figures for the pIC50 in experiment [1] and in experiment [2] were above 4.70 and above 6.30, respectively.
Regarding `Nc1ncccc1-c1nc2ccc(-c3ccccc3F)nc2n1-c1ccc(C2CN(CC3CC4CC(C(=O)O)CC4C3)C2)cc1` (centres unmarked) [Compound I-202], the pIC50 in experiment [1] was above 4.70; in experiment [2] it was above 6.30.
In the same order, the values of `Nc1ncccc1-c1nc2ccc(-c3ccccc3)nc2n1-c1ccc(C2CN(CC3CCC(CC(=O)O)CC3)C2)cc1` (centres unmarked) [Compound I-153] are above 4.70 and above 6.30.
In the same order, the values of `Cc1cc(CN2CCC(C(C)(C)C(=O)O)C2)ccc1-n1c(-c2cccnc2N)nc2ccc(-c3ccccc3)nc21` (centres unmarked) [Compound I-180] are above 4.70 and at most 5.70.
In the same order, the values of `COC(=O)[C@H]1CC[C@H](C(=O)Nc2ccc(-n3c(-c4cccnc4N)nc4ccc(-c5ccccc5)nc43)cn2)CC1` [Compound I-113, methyl (1r,4r)-4-((5-(2-(2-aminopyridin-3-yl)-5-phenyl-3H-imidazo[4,5-b]pyridin-3-yl)pyridin-2-yl)carbamoyl)cyclohexane-1-carboxylate] are above 4.70 and 5.70 to 6.30.
Consider `C[C@@H]1C[C@H](N(C)Cc2ccc(-n3c(-c4cccnc4N)nc4ccc(-c5ccccc5)nc43)c(F)c2)C[C@H](C)[C@H]1C(=O)O` [Compound I-160], for which the pIC50 in experiment [1] was above 4.70; in experiment [2] it was 5.70 to 6.30.
In the same order, the values of `CCN(Cc1ccc(-n2c(-c3cccnc3N)nc3ccc(-c4ccccc4)nc32)c(F)c1)[C@H]1CC[C@@H](C(=O)O)CC1` [Compound I-162] are above 4.70 and at most 5.70.
In the same order, the values of `Cc1nc(CN(C)[C@H]2CC[C@@H](C(=O)O)CC2)ccc1-n1c(-c2cccnc2N)nc2ccc(-c3ccccc3)nc21` [Compound I-184] are above 4.70 and 5.70 to 6.30.
In the same order, the values of `Nc1ncccc1-c1nc2ccc(-c3ccccc3)nc2n1-c1ccc(NC(=O)N2CCC(C(=O)O)C2)cc1` (centres unmarked) [Compound I-52, 1-[[4-[2-(2-amino-3-pyridyl)-5-phenyl-imidazo[4,5-b]pyridin-3-yl]phenyl]carbamoyl]pyrrolidine-3-carboxylic acid] are above 4.70 and above 6.30.
As for `Nc1ncccc1-c1nc2ccc(-c3ccccc3)nc2n1-c1ccc(NCC2CC3(C2)CC(C(=O)O)C3)nc1` (centres unmarked) [Compound I-137, 6-(((5-(2-(2-aminopyridin-3-yl)-5-phenyl-3H-imidazo[4,5-b]pyridin-3-yl)pyridin-2-yl)amino)methyl)spiro[3.3]heptane-2-carboxylic acid], the pIC50 was above 4.70 in experiment [1] and above 6.30 in experiment [2].
In the same order, the values of `Cc1nc(NC(=O)[C@H]2CC[C@H](C(=O)O)CC2)ccc1-n1c(-c2cccnc2N)nc2ccc(-c3ccccc3)cc21` [Compound I-127, (1r,4r)-4-((5-(2-(2-aminopyridin-3-yl)-6-phenyl-1H-benzo[d]imidazol-1-yl)-6-methylpyridin-2-yl)carbamoyl)cyclohexane-1-carboxylic acid] are above 4.70 and 5.70 to 6.30.
As for `NC(=O)C1CCC(CN2CC(c3ccc(-n4c(-c5cccnc5N)nc5ccc(-c6ccccc6)nc54)cc3)C2)CC1` (centres unmarked) [Compound I-140, 4-((3-(4-(2-(2-aminopyridin-3-yl)-5-phenyl-3H-imidazo[4,5-b]pyridin-3-yl)phenyl)azetidin-1-yl)methyl)cyclohexane-1-carboxamide], the pIC50 in experiment [1] is above 4.70; in experiment [2], 5.70 to 6.30.
In the same order, the values of `Cc1cc(C2CN(C[C@H]3CC[C@@H](C(=O)O)CC3)C2)ccc1-n1c(-c2cccnc2N)nc2ccc(-c3ccccc3F)nc21` [Compound I-210] are above 4.70 and 5.70 to 6.30.
`CC1(C)C[C@H](CN2CCC(c3ccc(-n4c(-c5cccnc5N)nc5ccc(-c6ccccc6)nc54)cc3)CC2)CC(C)(C)[C@H]1C(=O)O` [Compound I-196]: the pIC50 in experiment [1] was above 4.70; in experiment [2], at most 5.70.
